# Laboratory results published in doi:10.1101/2025.03.13.643086, “Granzyme-targeting quenched activity-based probes for assessing tumor response to immunotherapy” (bioRxiv, 2025).
# Non-standard residues stand in square brackets, D forms with d. Residues, ends and D or L forms follow the SMILES beside them. *: point of attachment. Abu(4-SO3H) = N[C@@H](CCS(=O)(=O)O)C(=O)O; ACC = NC(=O)Cc1cc(=O)oc2cc(N*)ccc12; Cya = N[C@@H](CS(=O)(=O)O)C(=O)O
# B1: Casp-8 (Homo sapiens) (protein)
# chain 1: SESQTLDKVYQMKSKPRGYCLIINNHNFAKAREKVPKLHSIRDRNGTHLDAGALTTTFEELHFEIKPHDDCTVEQIYEILKIYQLMDHSNMDCFICCILSHGDKGIIYGTDGQEAPIYELTSQFTGLKCPSLAGKPKVFFIQACQGDNYQKGIPVETD
# chain 2: LSSPQTRYIPDEADFLLGMATVNNCVSYRNPAEGTWYIQSLCQSLRERCPRGDDILTILTEVNYEVSNKDDKKNMGKQMPQPTFTLRKKLVFPSD
# Assays:
# [1] = molecular target: recombinant human active GzmB (Homo sapiens, UniProt P10144); assay: Enzyme cleavage assay / Michaelis-Menten kinetics of fluorogenic substrates with GzmB; type: biochemical; conditions: 10 nM GzmB
# Protocol: (§1) Figure 1. Isosteric substitution of carboxylic acid at P1 with sulfonic acid enhances selectivity for GzmB over Casp-8. (A) Chemical structures of tetrapeptide fluorogenic substrates 1-4. (B) Enzyme cleavage assay. 100 μM of each substrate was incubated with either recombinant human active GzmB (10 nM) or Casp-8 (5 nM) and fluorescence was measured at Ex/Em: 380/460 nm for 1 h. The initial velocity (V0) of each substrate was normalized to that of the control substrate Ac-IEPD-ACC (1). […] (C) Kinetic measurement. The Michaelis-Menten plot and kinetic parameters were generated with varying concentrations of each substrate 1 and 2 incubated with recombinant human active GzmB (10 nM) and Casp-8 (5 nM). […] (D) Chemical structures of inhibitors 5-7. (E) GzmB inhibition. Recombinant human active GzmB (2 U/μL) was incubated with varying concentrations of each inhibitor and the residual activity of GzmB was measured by the cleavage of Ac-IEPD-AMC fluorogenic substrate and normalized to DMSO control.
# (§2) All kinetic experiments were performed on a spectrofluorometer (Biotek cytation5 or Synergy|Mx microplate reader) and analyzed using Microsoft Excel and GraphPad Prism. […]
# (v/v) Tween-20, pH 7.5. Assay buffers were prepared at room temperature while the kinetic experiments were performed at 37 °C. Data are presented as the mean with standard deviation (at least two independent experiments). For kinetic experiments, pro-GzmB (0.22 mg/mL) was activated with mouse cathepsin C (22 µg/mL in 50 mM MES, 50 mM NaCl, pH 5.5) and diluted in assay buffer. Alternatively, active GzmB at 100 U/µL was purchased from Enzo Life Sciences (#BML-SE238-5000) and diluted in assay buffer. Conditions for individual experiments are […]
# (§3) Figure 1B-C: 10 nM of active GzmB or 5 nM of Casp-8 were treated with different substrates (compounds 1-4) and recorded fluorescence (Ex/Em: 380/460 nm) for 1 h at 37 °C. To determine Michaelis-Menten constants, cleavage assays with 10 nM of GzmB or 5 nM of Casp-8 were performed with different concentrations of substrates 1 and 2. […]
# (§4) Working concentrations were prepared by further diluting in the assay buffer before use. Mouse pro-GzmB (0.474 mg/mL) was also activated with mCatC (52.14 µg/mL in 50 mM MES, 50 mM NaCl, pH 5.5), diluted in assay buffer and stored as 500 nM aliquots at - 80 °C, which were further diluted in assay buffer to make final working concentrations. In-gel fluorescence images were acquired on a Typhoon FLA9500 instrument while western blot and Coomassie staining images were acquired on an AMHERST ImageQuant 800 instrument.
# [2] = molecular target: Casp-8 (Homo sapiens, UniProt Q14790); assay: Enzyme cleavage assay / Michaelis-Menten kinetics of fluorogenic substrates with Casp-8; type: biochemical; conditions: 100 μM substrate, 5 nM Casp-8, 1 h, V0 normalized to 1
# Protocol: as §1, §2
# (§5) (v/v) Tween-20, pH 7.5. Assay buffers were prepared at room temperature while the kinetic experiments were performed at 37 °C. Data are presented as the mean with standard deviation (at least two independent experiments). […]
# (§6) (#BML-SE238-5000) and diluted in assay buffer. Conditions for individual experiments are […]
# as §3
# Working concentrations were prepared by further diluting in the assay buffer before use. […] In-gel fluorescence images were acquired on a Typhoon FLA9500 instrument while western blot and Coomassie staining images were acquired on an AMHERST ImageQuant 800 instrument.
# [3] = substrate: CC[C@H](C)[C@H](NC(C)=O)C(=O)N[C@@H](CCC(=O)O)C(=O)N1CCC[C@H]1C(=O)N[C@@H](CC(=O)O)C(=O)Nc1ccc2c(CC(N)=O)cc(=O)oc2c1; assay: as above; type: biochemical, human; conditions: other: 5 nM Casp-8, varying substrate concentrations, 37 °C
# Protocol: as §1, §2, §5, §6, §3, §4
# [4] = substrate: CC[C@H](C)[C@H](NC(C)=O)C(=O)N[C@@H](CCC(=O)O)C(=O)N1CCC[C@H]1C(=O)N[C@@H](CS(=O)(=O)O)C(=O)Nc1ccc2c(CC(N)=O)cc(=O)oc2c1; assay: as above; type: biochemical, human; conditions: other: 5 nM Casp-8, varying substrate concentrations, 37 °C
# Protocol: as §1, §2, §5, §6, §3, §4
# [5] = 100 μM substrate, 1 h, V0 normalized to 1
# recombinant human active GzmB, sequence (P10144 21-247): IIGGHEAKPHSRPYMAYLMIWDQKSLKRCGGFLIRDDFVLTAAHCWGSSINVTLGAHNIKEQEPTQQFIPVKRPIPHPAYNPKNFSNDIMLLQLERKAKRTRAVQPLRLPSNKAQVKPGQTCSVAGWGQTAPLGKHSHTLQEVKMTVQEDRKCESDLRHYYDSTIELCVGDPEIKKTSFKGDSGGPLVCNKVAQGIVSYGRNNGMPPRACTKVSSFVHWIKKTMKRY
molecule,measurement,setting,value
"CC[C@H](C)[C@H](NC(C)=O)C(=O)N[C@@H](CCC(=O)O)C(=O)N1CCC[C@H]1C(=O)N[C@@H](CS(=O)(=O)O)C(=O)Nc1ccc2c(CC(N)=O)cc(=O)oc2c1 [Compound 2, Ac-IEPCya-ACC] (Ac-IEP[Cya]-{ACC})",increase in turnover (kcat) for GzmB compared to Ac-IEPD-ACC (1),[1],10 fold
same,cleavage efficiency by GzmB compared to Ac-IEPD-ACC (1),[1]; [5],6 fold
same,"cleavage by Casp-8 compared to Ac-IEPD-ACC (1), in words",[2],cleavage by Casp-8 was reduced
CC[C@H](C)[C@H](NC(C)=O)C(=O)N[C@@H](CCS(=O)(=O)O)C(=O)N1CCC[C@H]1C(=O)N[C@@H](CC(=O)O)C(=O)Nc1ccc2c(CC(N)=O)cc(=O)oc2c1 [Compound 3] (Ac-I[Abu(4-SO3H)]PD-{ACC}),"cleavage by GzmB compared to Ac-IEPD-ACC (1), in words",[1]; [5],reduced cleavage by GzmB
same,"cleavage by Casp-8 compared to Ac-IEPD-ACC (1), in words",[2],increased cleavage by Casp-8
CC[C@H](C)[C@H](NC(C)=O)C(=O)N[C@@H](CCS(=O)(=O)O)C(=O)N1CCC[C@H]1C(=O)N[C@@H](CS(=O)(=O)O)C(=O)Nc1ccc2c(CC(N)=O)cc(=O)oc2c1 [Compound 4] (Ac-I[Abu(4-SO3H)]P[Cya]-{ACC}),"cleavage by GzmB compared to Ac-IEPD-ACC (1), in words",[1]; [5],routed for cleavage by GzmB
same,"cleavage by Casp-8 compared to Ac-IEPD-ACC (1), in words",[2],decreasing cross-reactivity with Casp-8
B1,Km,[3],359.9 µM
same,kcat,[3],0.090 s⁻¹
same,kcat/Km,[3],250 M⁻¹ s⁻¹
same,Km,[4],506.3 µM
same,kcat,[4],0.087 s⁻¹
same,kcat/Km,[4],172 M⁻¹ s⁻¹
